Entries after “also recorded” stand apart in the source; their conditions may differ.
Experiments:
H5FR H5 HA = type: binding, A/duck/France/161108h/2016 (H5N8)
[1] = system: VN1194 H5 HA from A/Vietnam/1194/2004 (H5N1); details: cited from earlier work
[2] = molecular target: H5FR H5 HA ectodomain from A/duck/France/161108h/2016 (H5N8), polyhistidine-tagged (SPR form) (influenza A virus A/duck/France/161108h/2016 (H5N8)); assay: SPR
[3] = system: Sh2 H7 HA from A/Shanghai/2/2013 (H7N9); details: cited from earlier work

For “NeuAcα2–3Galβ1–3GlcNAcβ1–3Galβ1–4Glc [LSTa]”, the “binding interactions in H5FR HA receptor binding site” value (H5FR H5 HA) is given as “Sia-1, Gal-2 and GlcNAc-3 were ordered; also recorded: similarly to VN1194 HA or H5VN HA” and the “LSTa residues visible in VN1194 H5 HA complex” value [1] is given as “only Sia-1 and Gal-2 were visible”.
In the case of “O-linked glycopeptide compound 2 (core 1 on peptide FVTIG, no sialic acid)”, the Kd [2] is reported as over 650 µM.
For `CC(=O)NC1C(O)OC(CO)C(OC2OC(CO)C(O)C(OC3(C(=O)O)CC(O)C(NC(C)=O)C(C(O)C(O)CO)O3)C2O)C1O` (centres unmarked) [3´-SLN, NeuAcα2–3Galβ1–4GlcNAc], the “Siaα2–3Gal linkage configuration of 3´-SLN in VN1194 H5 HA” value [1] is listed as “trans configuration”.
In the case of “NeuAcα2–3Galβ1–4GlcNAcβ1–3GalNAcα-Thr [glycan #21]”, the “binding mode of glycan in Sh2 H7 HA” value [3] is given as “adopts a cis configuration in the Siaα2–3Gal linkage”.

Source: PMC12904578 (PLOS Pathogens, 2026)
